What was measured:
[1] = test system: SARS-CoV-2; type: in vivo, mice
[2] = test system: SARS-CoV-2; set-up: species or system mice; conditions: mouse, in vivo

polylysine
increase in total survival across the treatment period ([1]; mouse, in vivo): 5 fold | mice surviving the treatment and exposure period ([1]; mouse, in vivo): six of ten | body weight after the treatment and exposure period (recovery) ([1]; surviving mice, p<0.05, FIG. 3A/3B): increasing weight to near pre-treatment levels | improved survival rate [2]: 50% | onset of morbidity [2]: delayed onset of morbidity
